One may read the pIC50 as the negative decadic logarithm of the IC50, by convention in mol/L. A high value points to a small IC50. For orientation: inhibition means the relative decrease from the control value, in per cent.

pIC50: −log10 of the molar value. Several values for one entry are separate records, joined by “and”; a condition that tells them apart may be missing. Equal entries are not always repeated. Entries after “also recorded” stand apart in the source; their conditions may differ. Where no end group is shown, it is not given here.

These results are taken from US20040002441A1, “Recombination modulators and methods for producing and using the same” (priority 2000, published 2004).

The target in test [1] is T1, Vaccinia topoisomerase (type Ib) (Vaccinia virus, UniProt P68698).
T1 construct: made in house; host or cells: Escherichia coli BL21 infected with bacteriophage λCE6
Put plainly: biochemical. In kind it is biochemical. The conditions noted are these: for pIC50: IC50 for DNA cleavage (covalent adduct formation).

Test [2] concerns the target T1, Vaccinia topoisomerase (type Ib). Put plainly: biochemical. To be noted: for pIC50: IC50 for plasmid relaxation (activity reduced by one-half), pUC19 DNA.
The target in test [3] is T2, E. coli topoisomerase I (type Ia) (Escherichia coli, UniProt P06612).
T2 sequence (P06612 1-865): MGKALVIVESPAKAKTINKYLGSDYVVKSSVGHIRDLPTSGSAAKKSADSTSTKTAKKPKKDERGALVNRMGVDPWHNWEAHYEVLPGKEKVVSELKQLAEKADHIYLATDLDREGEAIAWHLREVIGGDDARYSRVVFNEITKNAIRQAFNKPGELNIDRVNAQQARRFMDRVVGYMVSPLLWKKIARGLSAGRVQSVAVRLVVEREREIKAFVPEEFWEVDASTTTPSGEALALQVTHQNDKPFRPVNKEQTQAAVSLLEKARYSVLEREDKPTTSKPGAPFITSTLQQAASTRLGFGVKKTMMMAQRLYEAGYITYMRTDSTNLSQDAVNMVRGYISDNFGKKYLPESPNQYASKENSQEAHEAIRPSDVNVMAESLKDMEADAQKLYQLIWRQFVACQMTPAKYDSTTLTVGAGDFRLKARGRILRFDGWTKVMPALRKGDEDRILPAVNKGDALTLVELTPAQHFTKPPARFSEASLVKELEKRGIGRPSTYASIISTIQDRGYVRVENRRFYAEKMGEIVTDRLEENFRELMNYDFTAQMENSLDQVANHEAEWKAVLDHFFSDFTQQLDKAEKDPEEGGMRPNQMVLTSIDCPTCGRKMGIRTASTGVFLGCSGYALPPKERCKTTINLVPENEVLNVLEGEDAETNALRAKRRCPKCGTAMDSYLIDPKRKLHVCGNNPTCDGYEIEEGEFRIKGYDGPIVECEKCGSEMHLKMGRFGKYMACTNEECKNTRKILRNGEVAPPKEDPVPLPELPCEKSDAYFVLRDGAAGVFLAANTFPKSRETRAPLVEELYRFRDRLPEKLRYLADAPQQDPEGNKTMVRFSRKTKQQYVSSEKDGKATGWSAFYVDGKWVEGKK
Put plainly: biochemical. The conditions noted are these: for pIC50: IC50, DNA relaxation (activity reduced by one-half), supercoiled DNA. From the text:
E. coli topoisomerase I (TopA) exemplifies the type IA topoisomerase family. Type IA enzymes are mechanistically and structurally unrelated to the topoisomerase IB/tyrosine recombinase superfamily of DNA strand transferases.

In test [4] the target is T3, bacteriophage P1 Cre protein (Escherichia phage P1, UniProt P06956).
T3 sequence (P06956 1-343): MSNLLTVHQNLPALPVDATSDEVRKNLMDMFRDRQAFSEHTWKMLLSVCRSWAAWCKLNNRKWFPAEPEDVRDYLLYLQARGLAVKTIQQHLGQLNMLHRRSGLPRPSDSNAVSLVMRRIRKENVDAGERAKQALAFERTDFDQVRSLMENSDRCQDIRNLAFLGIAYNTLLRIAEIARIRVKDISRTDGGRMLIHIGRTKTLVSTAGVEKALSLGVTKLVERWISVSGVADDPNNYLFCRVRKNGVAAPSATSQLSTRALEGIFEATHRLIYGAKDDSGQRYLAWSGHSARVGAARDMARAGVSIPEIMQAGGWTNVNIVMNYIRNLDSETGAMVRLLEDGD
Put plainly: Cre-mediated recombination between two lox site substrates. The test is classed as biochemical. From the text:
In order to test the specificity of peptide inhibition, we determined whether peptide KWWCRW affects the activity of a relative of the Int recombinase, namely the bacteriophage P1 Cre protein. Indeed, the peptide inhibits Cre-mediated recombination between two lox site substrates (Cassell and Segall, unpublished results).

Where [5] appears, read: peptide concentrations up to 42 μM.

Turning to KWWCRW-NH2 [Peptide 59, KWWCRW], in test [1], the “effect on rate of transesterification” value was “slowed the rate of transesterification”; the “inhibition of covalent adduct formation” value was found to be 99%; the “reduction of covalent adduct formation” value is listed as 90%; the pIC50 is ~6.30 and 6.30. Also, the inhibition at 0.7 µM in test [1] (read-out: inhibition of cleavage) was 40%. Also, in test [2], the pIC50 was 5.46. Further, in test [3], the pIC50 is 5.10. The “effect on Cre-mediated recombination” value in test [4] is “inhibit”.

Turning to KWWWRW-NH2 [Peptide 56, KWWWRW], in test [1], the “effect on rate of transesterification” value is given as “slowed the rate of transesterification”, the “inhibition of covalent adduct formation” value came to 99% and the pIC50 is about 6.30. The pIC50 in test [2] is 5.40 to 5.52. The same substance had a pIC50 in test [3] of 5.00 to 5.15. In addition, the “effect on Cre-mediated recombination” value in test [4] is “inhibit”.

Turning to WKHYNY-NH2 [Peptide 52, WKHYNY], in test [1], the “effect on transesterification (DNA cleavage)” value is on record as “did not inhibit transesterification; also recorded: do not inhibit cleavage”. In addition, the “effect on DNA relaxation” value in test [2] (setting [5]) and in test [3] (setting [5]) was “no effect” throughout. Also, the “accumulation of Holliday junctions in Cre-mediated recombination” value in test [4] is listed as “does cause accumulation of Holliday junctions”.
